In PMC9516332 (Frontiers in Oncology, 2022):

How the values were obtained:
Experiment in all cases: Kinase panel profiling at 1 µmol/L (MSA or IMAP), percentage inhibition
Type in all cases: biochemical
[1] = molecular target: T1, panel of 255 wild-type kinases (Homo sapiens, UniProt Q13043); conditions: MST1; 1 µmol/L single concentration; read-out: %-inhibition, MST1
T1 sequence (Q13043 1-487): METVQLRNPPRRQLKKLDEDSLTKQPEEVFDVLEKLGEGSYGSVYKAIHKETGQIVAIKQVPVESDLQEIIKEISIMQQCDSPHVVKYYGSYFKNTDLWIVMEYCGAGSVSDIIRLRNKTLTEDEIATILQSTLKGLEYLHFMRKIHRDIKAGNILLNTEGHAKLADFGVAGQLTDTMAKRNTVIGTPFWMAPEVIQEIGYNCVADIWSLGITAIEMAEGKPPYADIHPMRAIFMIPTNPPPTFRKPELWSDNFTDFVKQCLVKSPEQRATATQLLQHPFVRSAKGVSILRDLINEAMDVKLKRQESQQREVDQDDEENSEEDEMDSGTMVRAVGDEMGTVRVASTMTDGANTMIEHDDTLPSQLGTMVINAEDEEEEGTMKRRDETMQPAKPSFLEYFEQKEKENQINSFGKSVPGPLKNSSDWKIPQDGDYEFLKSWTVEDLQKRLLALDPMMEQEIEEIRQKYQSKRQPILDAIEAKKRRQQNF

[2] = molecular target: panel of 255 wild-type kinases (Homo sapiens, UniProt P51451); conditions: BLK kinase assay, 1 µmol/L single concentration; for inhibition at 1 µM: read-out: %-inhibition BLK
[3] = molecular target: panel of 255 wild-type kinases (Homo sapiens, UniProt Q04759); conditions: kinase PKCθ; 1 µmol/L single concentration; read-out: %-inhibition at 1 µmol/L, PKCθ
[4] = molecular target: T2, panel of 255 wild-type kinases (Homo sapiens, UniProt Q13188); conditions: MST2; 1 µmol/L single concentration; read-out: %-inhibition, MST2
T2 sequence (Q13188 1-491): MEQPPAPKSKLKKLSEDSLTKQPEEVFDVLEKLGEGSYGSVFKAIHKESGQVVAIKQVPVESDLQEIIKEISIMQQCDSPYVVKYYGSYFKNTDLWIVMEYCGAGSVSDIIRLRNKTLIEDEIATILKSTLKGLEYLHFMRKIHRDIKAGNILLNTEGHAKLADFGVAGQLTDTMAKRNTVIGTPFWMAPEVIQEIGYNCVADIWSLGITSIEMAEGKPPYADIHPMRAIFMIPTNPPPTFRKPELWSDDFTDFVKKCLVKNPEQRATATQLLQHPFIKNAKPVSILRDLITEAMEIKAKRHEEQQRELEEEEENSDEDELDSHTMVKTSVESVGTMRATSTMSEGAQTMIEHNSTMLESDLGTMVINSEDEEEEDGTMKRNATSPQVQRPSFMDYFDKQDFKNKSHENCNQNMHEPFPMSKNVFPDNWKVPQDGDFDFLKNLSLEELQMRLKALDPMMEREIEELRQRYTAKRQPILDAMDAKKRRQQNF

[5] = molecular target: panel of 255 wild-type kinases (Homo sapiens, UniProt Q8TDX7); conditions: NEK7; 1 µmol/L single concentration; read-out: %-inhibition, NEK7
[6] = molecular target: panel of 255 wild-type kinases (Homo sapiens, UniProt Q13153); conditions: PAK1; 1 µmol/L single concentration; read-out: %-inhibition, PAK1
[7] = molecular target: T3, panel of 255 wild-type kinases (Homo sapiens, UniProt O15530); conditions: kinase PDK1; 1 µmol/L single concentration; read-out: %-inhibition at 1 µmol/L, PDK1
T3 sequence (O15530 1-556): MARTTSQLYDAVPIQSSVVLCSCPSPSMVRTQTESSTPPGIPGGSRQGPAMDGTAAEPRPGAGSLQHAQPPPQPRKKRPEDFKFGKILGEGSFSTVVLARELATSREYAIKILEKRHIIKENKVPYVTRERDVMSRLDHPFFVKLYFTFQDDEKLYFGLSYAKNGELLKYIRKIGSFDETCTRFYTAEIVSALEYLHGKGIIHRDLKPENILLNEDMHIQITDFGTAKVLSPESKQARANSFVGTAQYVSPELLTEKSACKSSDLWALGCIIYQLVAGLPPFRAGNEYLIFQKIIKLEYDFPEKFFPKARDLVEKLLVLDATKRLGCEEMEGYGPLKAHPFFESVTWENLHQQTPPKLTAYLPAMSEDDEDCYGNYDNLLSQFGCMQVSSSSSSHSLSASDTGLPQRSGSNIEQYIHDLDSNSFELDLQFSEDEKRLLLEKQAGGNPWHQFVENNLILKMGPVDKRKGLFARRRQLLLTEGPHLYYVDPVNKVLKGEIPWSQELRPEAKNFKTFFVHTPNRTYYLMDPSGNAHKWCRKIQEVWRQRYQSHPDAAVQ

| Compound | inhibition at 1 µM [1] [%] | inhibition at 1 µM [2] [%] | inhibition at 1 µM [3] [%] | inhibition at 1 µM [4] [%] | inhibition at 1 µM [5] [%] | inhibition at 1 µM [6] [%] | inhibition at 1 µM [7] [%] | %-inhibition BLK [2] [%] |
| --- | --- | --- | --- | --- | --- | --- | --- | --- |
| O=C(Nc1cnn2ccc(N3CCC[C@@H]3c3cc(F)ccc3F)nc12)N1CC[C@H](O)C1 [larotrectinib] | -4 | -4 | -2.77 | 0.182 | 0.263 | -3.56 | 2.15 | – |
| C[C@H]1Oc2cc(cnc2N)-c2c(nn(C)c2C#N)CN(C)C(=O)c2ccc(F)cc21 [lorlatinib] | 28 | -6 | 3 | 8 | 1.44 | -2.12 | 0.602 | – |
| CCN1C(=O)N(c2c(F)c(OC)cc(OC)c2F)Cc2cnc3[nH]c(CN4CCOCC4)cc3c21 [pemigatinib] | 6 | 27 | -2.16 | 7 | 3 | -3.62 | 0.293 | – |
| FC(F)(F)c1ccc(CNc2ccc(Cc3c[nH]c4ncc(Cl)cc34)cn2)cn1 [pexidartinib] | 25 | 18 | 3.27 | 10 | -2.52 | 2 | -4.67 | – |
| CO[C@]1(C(=O)N[C@@H](C)c2ccc(-n3cc(F)cn3)nc2)CC[C@H](c2nc(C)cc(Nc3cc(C)[nH]n3)n2)CC1 [pralsetinib] | 19 | 84 | -0.598 | 5.55 | -3 | 9 | 9 | – |
| CCn1c(=O)c(-c2cc(NC(=O)Nc3ccccc3)c(F)cc2Br)cc2cnc(NC)cc21 [ripretinib] | 3 | 26 | -3 | 0.11 | -7 | 0.719 | -7 | – |
| COc1ccc(CN2C3CC2CN(c2ccc(-c4cc(OCC(C)(C)O)cn5ncc(C#N)c45)cn2)C3)cn1 [selpercatinib] | -2.33 | 76 | -2.29 | 0.47 | 1 | -5.31 | 7 | – |
| Cn1cnc2c(F)c(Nc3ccc(Br)cc3Cl)c(C(=O)NOCCO)cc21 [selumetinib] | -2.38 | -6 | -0.321 | -2.14 | -0.844 | 7 | 2.11 | – |
| Cc1cc(Nc2ncnc3ccc(NC4=NC(C)(C)CO4)cc23)ccc1Oc1ccn2ncnc2c1 [tucatinib] | 4 | 2.27 | 0.763 | -1.17 | -5.58 | -1.11 | 3 | – |
| C=CC(=O)N1CCC([C@@H]2CCNc3c(C(N)=O)c(-c4ccc(Oc5ccccc5)cc4)nn32)CC1 [zanubrutinib] | -3 | – | -3 | 1.56 | 2 | -2.56 | 0.547 | 98 |
